Test results: the supplement of paper PMC11451515

Columns and labels:
SEM cells [1] = assay: cell viability relative to DMSO control; higher = less cytotoxic; settings: 48 h
Method in brief: (§1)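 Viability is a per-plate percentage relative to DMSO wells, with cell-free wells as background. CellTiter-Glo One luminescence was read after 48 h at 37°C on 1536-well plates (5 μl) of NOMO1 or SEM (500 cells/well) or P12-Ichikawa (1000 cells/well) leukemia cells. The cells had been adapted for at least four passages in each medium and pin-dosed with library compounds in DMSO from 47 μM to 0.79 nM in 11 threefold steps.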

NOMO1 = assay: AUC of viability dose-response curve (% viability x log10 dose units); higher = less sensitive; settings: 48 h
Method in brief: (§2)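 Seeding of medium-adapted leukemia cells was at 500 or 1000 cells/well in 1536-well plates, followed by 48 h at 37°C with library compounds in DMSO at 11 threefold doses from 47 μM to 0.79 nM. CellTiter-Glo One luminescence was normalised per plate to DMSO and cell-free wells and fitted as a four-parameter log-logistic function of log10 dose. Area under the curve was integrated by trapezoidal rule, with curves exceeding full viability scaled and curves failing quality control removed.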

P12-Ichikawa [2] = assay: as above; settings: 48 h
Method in brief: as §2

SEM cells [3] = assay: as above; settings: 48 h
Method in brief: as §2

P12-Ichikawa [4] = assay: cell viability relative to DMSO control; higher = less cytotoxic; settings: HPLM + 10% dialyzed FBS, 48 h
Method in brief: as §1

COc1cc2nc(N3CCCN(C)CC3)nc(NC3CCN(Cc4ccccc4)CC3)c2cc1OC
cell viability [%], SEM cells [1]
Settings | HPLM + 10% dialyzed FBS | RPMI 5 mM glucose + 10% FBS | RPMI 5 mM glucose + 10% dialyzed FBS
0.000781 µM | 92.1 | 104 | 112
0.00234 µM | 122 | 116 | 117
0.00702 µM | 129 | 140 | 131
0.0211 µM | 111 | 113 | 104
0.0632 µM | 130 | 132 | 128
0.19 µM | 119 | 127 | 132
0.569 µM | 125 | 143 | 132
1.71 µM | 98.1 | 97.7 | 131
5.12 µM | 60.1 | 108 | 92.3
15.4 µM | 37.5 | 44.8 | 55.9
46.1 µM | 10.2 | 11.5 | 19.1

AUC of viability dose-response curve
Settings | NOMO1 | P12-Ichikawa [2] | SEM cells [3]
HPLM + 10% dialyzed FBS | 378 | 407 | 389
RPMI 5 mM glucose + 10% FBS | 406 | 401 | 416
RPMI 5 mM glucose + 10% dialyzed FBS | 384 | 385 | 419

CCc1cccc(CC)c1NC(=O)N1Cc2[nH]nc(NC(=O)c3ccc(N4CCN(C)CC4)cc3)c2C1
SEM cells [1], HPLM + 10% dialyzed FBS
Settings | cell viability [%]
0.000781 µM | 100
0.00234 µM | 121
0.00702 µM | 130
0.0211 µM | 128
0.0632 µM | 133
0.19 µM | 138
0.569 µM | 113
1.71 µM | 89.2
5.12 µM | 57.5
15.4 µM | 22.1
46.1 µM | 7.86

AUC of viability dose-response curve
Settings | NOMO1 | P12-Ichikawa [2] | SEM cells [3]
HPLM + 10% dialyzed FBS | 415 | 356 | 372
RPMI 5 mM glucose + 10% FBS | 403 | 361 | 341
RPMI 5 mM glucose + 10% dialyzed FBS | 394 | 373 | 344

CN(C)NC(=O)CCC(=O)O
AUC of viability dose-response curve
Settings | NOMO1 | P12-Ichikawa [2] | SEM cells [3]
HPLM + 10% dialyzed FBS | 464 | 464 | 468
RPMI 5 mM glucose + 10% FBS | 467 | 464 | 464
RPMI 5 mM glucose + 10% dialyzed FBS | 471 | 466 | 474

Cc1ccc(O)c(C(CCN(C(C)C)C(C)C)c2ccccc2)c1.Cl (centres undefined)
Settings | AUC of viability dose-response curve | cell viability [%]
NOMO1, HPLM + 10% dialyzed FBS | 410 | –
NOMO1, RPMI 5 mM glucose + 10% FBS | 430 | –
NOMO1, RPMI 5 mM glucose + 10% dialyzed FBS | 435 | –
P12-Ichikawa [2], HPLM + 10% dialyzed FBS | 465 | –
P12-Ichikawa [2], RPMI 5 mM glucose + 10% FBS | 470 | –
P12-Ichikawa [2], RPMI 5 mM glucose + 10% dialyzed FBS | 475 | –
P12-Ichikawa [4], 0.000781 µM | – | 121
P12-Ichikawa [4], 0.00234 µM | – | 122
P12-Ichikawa [4], 0.00702 µM | – | 131
P12-Ichikawa [4], 0.0211 µM | – | 137
P12-Ichikawa [4], 0.0632 µM | – | 140
P12-Ichikawa [4], 0.19 µM | – | 128
P12-Ichikawa [4], 0.569 µM | – | 129
P12-Ichikawa [4], 1.71 µM | – | 134
P12-Ichikawa [4], 5.12 µM | – | 134
P12-Ichikawa [4], 15.4 µM | – | 136
P12-Ichikawa [4], 46.1 µM | – | 127
SEM cells [3], HPLM + 10% dialyzed FBS | 461 | –
SEM cells [3], RPMI 5 mM glucose + 10% FBS | 477 | –
SEM cells [3], RPMI 5 mM glucose + 10% dialyzed FBS | 463 | –

CCOC(=O)[C@H](CCc1ccccc1)N[C@H]1CCc2ccccc2N(CC(=O)O)C1=O
AUC of viability dose-response curve
Settings | NOMO1 | P12-Ichikawa [2] | SEM cells [3]
HPLM + 10% dialyzed FBS | 429 | 463 | 458
RPMI 5 mM glucose + 10% FBS | 450 | 458 | 454
RPMI 5 mM glucose + 10% dialyzed FBS | 448 | 457 | 459

CC(=O)Nc1nc(C)c(-c2ccc(Cl)c([S+](=O)([O-])NCCO)c2)s1
AUC of viability dose-response curve
Settings | NOMO1 | P12-Ichikawa [2] | SEM cells [3]
HPLM + 10% dialyzed FBS | 364 | 374 | 366
RPMI 5 mM glucose + 10% FBS | 385 | 326 | 345
RPMI 5 mM glucose + 10% dialyzed FBS | 362 | 340 | 344
